The record followed here is patent US10342796B2, “Acrylanilide derivative, preparation method, and applications thereof in pharmacy” (Ancureall Pharmaceutical (Shanghai) Co., Ltd., priority 2015, dated 2019).

Holding throughout (assay): Growth inhibition GI50 in vitro (CCK8/MTT, 72 h)
Common to all, as to assay type: cell-based, human

The subject of experiment [1] is H1975 (EGFR L858R/T790M). To be noted: Homo sapiens, NCI-H1975; Table 13, 72 h; read-out: Range of GI50 H1975 (EGFR L858R/T790M). How it is done: (§1) PC-9ER is an acquired Erlotinib resistance cell line of PC-9 cells developed by the investor. […] The four cell lines above were cultured with 1×RPMI1640 complete medium (supplement with 10% FBS). Human colon cancer cell line SW48 (EGFR G719S positive, ATCC). was cultured with L15 complete medium (10% FB S).
(§2) The suspension cells were collected by centrifugation. The supernatant was discard and the cell pellet was resuspended and counted. Different cell concentrations (5˜10×10^4 cells/mL) were prepared according to the growth cycle of each cell line and then seeded on a 96-well plate (Corning), 100 μL/well. The cells were incubated over night at 37° C., 5% CO2. The compounds were added to the cells on the second day with 2 wells in parallel. The final concentration of organic solvent shall not exceed 1%. The cells were continually incubated for 72 h, and then subjected to MTT assay.
(§3) The present compounds and the reference compounds were dissolved with DMSO (Sigma), respectively. […] The storage concentration of compounds was 10 mM and kept at −20° C. They were diluted by 2 times or 10 times with serial dilution before using.
(§4) Dojindo CCK8 reagent kit was used as MTT assay. […] FC meter was used as microplate reader.
(§5) Adherent cell culture medium was discard and immediately replaced with fresh prepared medium which contains 10% CCK8 reagent (100 μL/well). For the suspension cells, CCK8 was directly added to 10% of the final concentration. The cells were continually incubated for 1˜4 h. When the color of control wells turned to dark yellow, the absorption value was measured at OD450 nm. The cell growth rate was calculated according to the following formula: cell growth rate (%)=100*(T−T0)/(C−T0), T=optical density of drug treatment cell well—optical density of blank control well; T0=optical density of cell well before drug treatment—optical density of blank control well; C=optical density of cell well of solvent control group—optical density of blank control well. […] The experiment was independently repeated 1˜3 times, and subject to biological statistical analysis.

Experiment [2] deals with PC-9 (EGFR dE746-A750). To be noted: Homo sapiens; Table 13, 72 h; read-out: Range of GI50 PC-9 (EGFR dE746-A750). The method, then:
as §1, §2, §3, §4, §5

For experiment [3], the system named is N87 (HER2 Amp). The settings on record: Homo sapiens; Table 13, 72 h; read-out: Range of GI50 N87 (HER2 Amp).
Experiment [4] relates to A549 (EGFR WT). To be noted: Homo sapiens, A549; Table 13, 72 h; read-out: Range of GI50 A549 (EGFR WT).
From the text: EGFR wild type cell lines: human epidermal cancer cell line A431 (EGFR WT, amplification and high expression, from Shanghai Cell Bank of Chinese Academy of Sciences and ATCC), NSCLC cell lines NCI-H460 (EGFR WT, Kras G61H and PI3KCA E545K mutants, ATCC) and NCI-H1299 (EGFR WT, ATCC), melanoma cell line A375 (EGFR WT and BRAF V600E mutant, from Shanghai Cell Bank of Chinese Academy of Sciences, ATCC), human lung cancer cell line NCI-H292 (EGFR WT, from human lung mucoepidermoid carcinoma/lymphatic metastasis, purchased from Shanghai Cell Bank of Chinese Academy of Sciences) were cultured with 1×RPMI1640 complete medium which was supplement with 10% FBS. NSCLC cell line A549 (EGFR WT and Kras G12S mutant, from Shanghai Cell Bank of Chinese Academy of Sciences) was cultured with 1×Ham'S F12K complete medium which was supplement with 10% FBS, 1% double-antibiotics and 2 mM glutamine.
as §2, §3, §4, §5

Consider `C=CC(=O)Nc1cc(Nc2ncc(Cl)c(-n3ccc4c(OC)cccc43)n2)c(OC)cc1N(C)CCN(C)C` [Compound 203, N-(5-(4-(4-methoxyl-1H-indol-1-yl)-5-chloropyrimidin-2-ylamino)-2-(2-(dimethylamino-ethyl)-methyl-amino)-4-methoxyl-phenyl)-acrylamide], for which the GI50 in experiment [1] is less than 0.01 µM; in experiment [2] it was less than 0.01 µM; in experiment [3], less than 0.01 µM; in experiment [4] it was greater than 1 µM.
Regarding `C=CC(=O)Nc1cc(Nc2nccc(-n3ccc4c(O)cccc43)n2)c(OC)cc1N(C)CCN(C)C` [Compound 204, N-(5-(4-(4-hydroxyl-1H-indol-1-yl)-pyrimidin-2-ylamino)-2-(2-(dimethylamino-ethyl)-methyl-amino)-4-methoxyl-phenyl)-acrylamide], the GI50 was 0.01 to 0.1 µM in experiment [1], 0.01 to 0.1 µM in experiment [2], less than 0.01 µM in experiment [3] and greater than 1 µM in experiment [4].
On to `C=CC(=O)Nc1cc(Nc2nccc(-n3ccc4c(OCCCCCC)cccc43)n2)c(OC)cc1N(C)CCN(C)C` [Compound 206, N-(5-(4-(4-n-hexyloxy-1H-indol-1-yl)-pyrimidin-2-ylamino)-2-(2-(dimethylamino-ethyl)-methyl-amino)-4-methoxyl-phenyl)-acrylamide], for which the GI50 in experiment [1] is 0.1 to 1 µM; in experiment [2], 0.1 to 1 µM; in experiment [3], 0.1 to 1 µM; in experiment [4] it was greater than 1 µM.
`C=CC(=O)Nc1cc(Nc2nccc(-n3ccc4c(OCC5CCCO5)cccc43)n2)c(OC)cc1N(C)CCN(C)C` (stereo not drawn) [Compound 207, N-(5-(4-(4-((tetrahydrofuran-2-yl)-methoxyl)-1H-indol-1-yl)-pyrimidin-2-ylamino)-2-(2-(dimethylamino-ethyl)-methyl-amino)-4-methoxyl-phenyl)-acrylamide]: the GI50 is 0.01 to 0.1 µM in experiment [1], 0.01 to 0.1 µM in experiment [2], 0.01 to 0.1 µM in experiment [3] and greater than 1 µM in experiment [4].
In the case of `C=CC(=O)Nc1cc(Nc2nccc(-n3ccc4c(OC)cccc43)n2)c(OC)cc1N1CCC(N2CCN(C)CC2)CC1` [Compound 208, N-(5-(4-(4-methoxyl-1H-indol-1-yl)-pyrimidin-2-ylamino)-2-(4-(4-methyl-piperazin-1-yl)-piperidin-1-yl)-4-methoxyl-phenyl)-acrylamide], the GI50 in experiment [1] is 0.1 to 1 µM; in experiment [2], 0.1 to 1 µM; in experiment [3], 0.01 to 0.1 µM; in experiment [4] it was greater than 1 µM.
With `C=CC(=O)Nc1cc(Nc2nccc(-n3ccc4c(-n5c(C)ccc5C)cc(Br)cc43)n2)c(OC)cc1N(C)CCN(C)C` [Compound 214], the GI50 in experiment [1] is 0.01 to 0.1 µM; in experiment [2], 0.01 to 0.1 µM; in experiment [3], 0.01 to 0.1 µM; in experiment [4], greater than 1 µM.
`C=CC(=O)Nc1cc(Nc2cc(Nc3ccc(OCCN4CCOCC4)c(Cl)c3)ncn2)c(OC)cc1N(C)CCN(C)C` [Compound 215, N-(5-(6-(3-chloro-4-(2-morpholin-4-yl-ethoxyl)-phenylamino)-pyrimidin-4-ylamino)-2-((2-dimethylamino-ethyl)-methyl-amino)-4-methoxyphenyl)-acrylamide]: the GI50 is 0.01 to 0.1 µM in experiment [1], less than 0.01 µM in experiment [2], 0.01 to 0.1 µM in experiment [3] and greater than 1 µM in experiment [4].
Take `C=CC(=O)Nc1cc(Nc2cc(Nc3ccc(OC)c(Cl)c3)ncn2)c(OC)cc1OCCN(C)C` [Compound 218, N-(5-(6-(3-chloro-4-methoxyl-phenylamino)-pyrimidin-4-ylamino)-2-(2-dimethylamino-ethoxyl)-4-methoxyl-phenyl)-acrylamide]: the GI50 was 0.01 to 0.1 µM in experiment [1], less than 0.01 µM in experiment [2], 0.01 to 0.1 µM in experiment [3] and greater than 1 µM in experiment [4].
For `C=CC(=O)Nc1cc(Nc2cc(Nc3ccc(OCCC(C)C)c(Cl)c3)ncn2)c(OC)cc1N(C)CCN(C)C` [Compound 219, N-(5-(6-(3-chloro-4-(3-methylbutoxy)-phenylamino)-pyrimidin-4-ylamino)-2-((2-dimethylaminoethyl)-methyl-amino)-4-methoxyphenyl)-acrylamide], the GI50 in experiment [1] was 0.01 to 0.1 µM; in experiment [2], less than 0.01 µM; in experiment [3], 0.01 to 0.1 µM; in experiment [4] it was greater than 1 µM.
Take `C=CC(=O)Nc1cc(Nc2cc(Nc3ccc(OC)c(C(F)(F)F)c3)ncn2)c(OC)cc1N(C)CCN(C)C` [Compound 222, N-(5-(6-(4-methoxyl-3-trifluoromethyl-phenylamino)-pyrimidin-4-yl-amino)-2-((2-dimethylamino-ethyl)-methyl-amino)-4-methoxyl-phenyl)-acrylamide]: the GI50 was 0.01 to 0.1 µM in experiment [1], less than 0.01 µM in experiment [2], 0.01 to 0.1 µM in experiment [3] and greater than 1 µM in experiment [4].
On to `C=CC(=O)Nc1cc(Nc2cc(Nc3ccc(OCc4nccs4)c(Cl)c3)ncn2)c(OC)cc1N(C)CCN(C)C` [Compound 223, N-(5-(6-(3-chloro-4-(thiazol-2-ylmethoxy)-phenylamino)-pyrimidin-4-ylamino)-2-((2-dimethylamino-ethyl)-methyl-amino)-4-methoxyl-phenyl)-acrylamide], for which the GI50 in experiment [1] is 0.01 to 0.1 µM; in experiment [2], 0.01 to 0.1 µM; in experiment [3] it was 0.01 to 0.1 µM; in experiment [4], greater than 1 µM.
As to `C=CC(=O)Nc1cc(Nc2cc(Nc3ccc(OC)c(Br)c3)ncn2)c(OC)cc1N(C)CCN(C)C` [Compound 224, N-(5-(6-(4-methoxyl-3-bromo-phenylamino)-pyrimidin-4-yl-amino)-2-((2-dimethylamino-ethyl)-methyl-amino)-4-methoxyl-phenyl)-acrylamide], the GI50 in experiment [1] is 0.01 to 0.1 µM; in experiment [2], less than 0.01 µM; in experiment [3], 0.01 to 0.1 µM; in experiment [4], greater than 1 µM.
As for `C=CC(=O)Nc1cc(Nc2cc(Nc3ccc(OC)c(Cl)c3)ncn2)c(OC)cc1N(C)CCN1CCCC1` [Compound 225], the GI50 in experiment [1], in experiment [2] and in experiment [3] was 0.01 to 0.1 µM each time.
Consider `C=CC(=O)Nc1cc(Nc2cc(Nc3ccc(F)c(C(F)(F)F)c3)ncn2)c(OC)cc1N(C)CCN(C)C` [Compound 226, N-(5-(6-(4-fluoro-3-trifluoromethyl-phenylamino)-pyrimidin-4-yl-amino)-2-((2-dimethylamino-ethyl)-methyl-amino)-4-methoxyl-phenyl)-acrylamide], for which the GI50 was 0.01 to 0.1 µM in experiment [1], less than 0.01 µM in experiment [2], 0.01 to 0.1 µM in experiment [3] and greater than 1 µM in experiment [4].
On to `C=CC(=O)Nc1cc(Nc2cc(Nc3ccc(OC)c(Cl)c3)ncn2)c(OC)cc1N1CCN(C2CCN(C)CC2)CC1` [Compound 227, N-(5-(6-(3-chloro-4-methoxyl-phenylamino)-pyrimidin-4-ylamino)-2-(4-(1-methylpiperidin-4-yl)-piperazin-1-yl)-4-methoxyl-phenyl)-acrylamide], for which the GI50 in experiment [1] is 0.1 to 1 µM; in experiment [2], less than 0.01 µM; in experiment [3] it was 0.01 to 0.1 µM; in experiment [4], greater than 1 µM.
In the case of `C=CC(=O)Nc1cc(Nc2cc(Nc3ccc(Cl)c(C(F)(F)F)c3)ncn2)c(OC)cc1N(C)CCN(C)C` [Compound 228, N-(5-(6-(4-chloro-3-trifluoromethyl-phenylamino)-pyrimidin-4-yl-amino)-2-((2-dimethylamino-ethyl)-methyl-amino)-4-methoxyl-phenyl)-acrylamide], the GI50 in experiment [1] was 0.01 to 0.1 µM; in experiment [2], less than 0.01 µM; in experiment [3], 0.01 to 0.1 µM; in experiment [4], greater than 1 µM.
